# Experimental data taken from patent US8481539B2, “Alkynylaryl compounds and salts thereof, pharmaceutical compositions comprising same, methods of preparing same and uses of same” (Bayer Intellectual Property GmbH, priority 2007, dated 2013).
# Tests used:
# human Trk-A = target: T1, human Trk-A (Homo sapiens, UniProt P04629); experiment: TrkA HTRF Assay (assay 7); format: biochemical; settings: pIC50 class; 10 μM ATP; read-out: Enzymatic TrkA activity (assay 7)
# T1 construct: C-terminal fragment of human Trk-A (amino acids G443-G796); GST; His; purchased Proqinase [Freiburg i.Brsg., Germany]; host or cells: insect cells [SF9]
# T1 sequence (P04629 443-796): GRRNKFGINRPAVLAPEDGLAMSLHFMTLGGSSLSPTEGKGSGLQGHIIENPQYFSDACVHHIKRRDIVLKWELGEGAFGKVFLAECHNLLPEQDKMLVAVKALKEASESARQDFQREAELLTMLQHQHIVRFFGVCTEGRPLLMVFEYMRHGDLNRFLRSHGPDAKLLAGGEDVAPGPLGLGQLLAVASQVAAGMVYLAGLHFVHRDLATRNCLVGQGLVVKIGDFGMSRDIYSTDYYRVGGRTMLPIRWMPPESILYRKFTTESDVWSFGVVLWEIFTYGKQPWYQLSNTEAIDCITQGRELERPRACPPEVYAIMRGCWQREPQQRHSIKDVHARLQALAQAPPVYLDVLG
# Text: Trk-A inhibitory activity of compounds of the present invention was quantified employing the Trk-A HTRF assay as described in the following paragraphs.
# As kinase, a GST-His fusion protein containing a C-terminal fragment of human Trk-A (amino acids G443-G796, expressed in insect cells [SF9] and purified by affinity chromatography, purchased from Proqinase [Freiburg i.Brsg., Germany] was used. As substrate for the kinase reaction the biotinylated poly-Glu, Tyr (4:1) copolymer (#61GT0BLA) from Cis Biointernational (Marcoule, France) was used. For the assay 50 nl of a 100 fold concentrated solution of the test compound in DMSO was pipetted into a black low volume 384 well microtiter plate (Greiner Bio-One, Frickenhausen, Germany), 2 μl of a solution of TrkA in aqueous assay buffer [8 mM MOPS/NaOH pH 7.0, 10 mM Mg(OAc)2, 1 mM dithiothreitol, 0.01% (v/v) NP-40 (Fluka), 0.2 mM EDTA] were added and the mixture was incubated for 15 min at 22° C. to allow pre-binding of the test compounds to the enzyme before the start of the kinase reaction. Then the kinase reaction was started by the addition of 3 μl of a solution of adenosine-tri-phosphate (ATP, 16.7 μM=>final conc. in the 5 μl assay volume is 10 μM) and substrate (2.27 μg/ml=>final conc. in the 5 μl assay volume is 1.36 μg/ml [˜30 nM]) in assay buffer and the resulting mixture was incubated for a reaction time of 60 min at 22° C. The concentration of Trk-A in the assay was adjusted depending of the activity of the enzyme lot and was chosen appropriate to have the assay in the linear range, typical enzyme concentrations were in the range of about 60 pg/μl (final conc. in the 5 μl assay volume). The reaction was stopped by the addition of 5 μl of a solution of HTRF detection reagents (200 nM streptavidine-XLent [Cis Biointernational] and 1.4 nM PT66-Eu-Chelate, an europium-chelate labelled anti-phospho-tyrosine antibody from Perkin Elmer) in an aqueous EDTA-solution (100 mM EDTA, 0.2% (w/v) bovine serum albumin in 50 mM HEPES/NaOH pH 7.5).
# (§1) The resulting mixture was incubated 1 h at 22° C. to allow the binding of the biotinylated phosphorylated peptide to the streptavidine-XLent and the PT66-Eu-Chelate. Subsequently the amount of phosphorylated substrate was evaluated by measurement of the resonance energy transfer from the PT66-Eu-Chelate to the streptavidine-XLent. Therefore, the fluorescence emissions at 620 nm and 665 nm after excitation at 350 nm was measured in a HTRF reader, e.g. a Rubystar (BMG Labtechnologies, Offenburg, Germany) or a Viewlux (Perkin-Elmer). The ratio of the emissions at 665 nm and at […] was taken as the measure for the amount of phosphorylated substrate. The data were normalised (enzyme reaction without inhibitor=0% inhibition, all other assay components but no enzyme=100% inhibition).
# human VEGFR2 = target: T2, human VEGFR2 (Homo sapiens, UniProt P35968); experiment: VEGFR2 HTRF Assay (assay 5); format: biochemical; settings: pIC50 class; 10 μM ATP; read-out: Enzymatic VEGFR2 activity (assay 5)
# T2 construct: GST-tagged recombinant kinase domain of the human VEGFR2; GST; host or cells: SF-9 cells
# T2 sequence (P35968 834-1162 limits assumed): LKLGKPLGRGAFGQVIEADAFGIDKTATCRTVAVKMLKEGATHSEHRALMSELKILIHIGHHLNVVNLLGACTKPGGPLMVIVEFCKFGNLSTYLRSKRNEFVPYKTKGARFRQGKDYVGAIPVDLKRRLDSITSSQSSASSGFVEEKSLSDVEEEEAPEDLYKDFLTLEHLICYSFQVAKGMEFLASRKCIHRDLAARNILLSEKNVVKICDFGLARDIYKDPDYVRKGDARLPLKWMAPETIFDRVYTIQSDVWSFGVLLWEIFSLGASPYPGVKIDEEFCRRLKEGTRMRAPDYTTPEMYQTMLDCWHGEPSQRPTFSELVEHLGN
# Text: Assay 5: VEGFR2 HTRF Assay
# VEGFR2 inhibitory activity of compounds of the present invention was quantified employing the VEGFR2 HTRF assay as described in the following paragraphs.
# GST-tagged recombinant kinase domain of the human VEGFR2 expressed in SF-9 cells was used as kinase. As substrate for the kinase reaction the biotinylated peptide biotin-Ahx-DFGLARDMYDKEYYSVG (C-terminus in acid form) was used which can be purchased e.g. form the company Biosynthan GmbH (Berlin-Buch, Germany). VEGFR2 was incubated for 45 min at 22° C. in the presence of different concentrations of test compounds in 5 μl assay buffer [50 mM Hepes/NaOH pH 7.0, 25 mM MgCl2, 5 mM MnCl2, 1.0 mM dithiothreitol, 0.1 mM sodium ortho-vanadate, 10 μM adenosine-tri-phosphate (ATP), 0.5 μM substrate, 0.001% (v/v) Nonidet-P40 (Sigma), 1% (v/v) dimethylsulfoxide]. The concentration of VEGFR2 was adjusted depending of the activity of the enzyme lot and was chosen appropriate to have the assay in the linear range. The reaction was stopped by the addition of 5 μl of a solution of HTRF detection reagents (0.1 μM streptavidine-XLent and 2 nM PT66-Eu-Chelate, an europium-chelate labelled anti-phospho-tyrosine antibody from Perkin Elmer) in an aqueous EDTA-solution (125 mM EDTA, 0.2% (w/v) bovine serum albumin in 50 mM HEPES/NaOH pH 7.0).
# as §1, with “incubated for” for “incubated”, “normalized” for “normalised”, “inhibition) and IC50 values were calculated by a 4 parameter fit using an inhouse software.” for “inhibition).”
IC50 (human Trk-A),IC50 (human VEGFR2),Structure (SMILES)
≥ 10 µM,< 1 µM,"Cn1ncc2c(C#Cc3cccc(NC(=O)c4cccc(C(F)(F)F)c4)c3)cncc21 [Example 1.5, N-[3-(1-Methyl-1H-pyrazolo[3,4-c]pyridin-4-ylethynyl)-phenyl]-3-trifluoromethyl-benzamide]"
≥ 10 µM,< 1 µM,"Cc1ccc(NC(=O)c2cccc(C(F)(F)F)c2)cc1C#Cc1cncc2c1cnn2C [Example 1.6, N-[4-Methyl-3-(1-methyl-1H-pyrazolo[3,4-c]pyridin-4-ylethynyl)-phenyl]-3-trifluoromethyl-benzamide]"
≥ 10 µM,< 1 µM,"Cn1ncc2c(C#Cc3cc(NC(=O)c4cccc(C(F)(F)F)c4)ccc3F)cncc21 [Example 1.9, N-[4-Fluoro-3-(1-methyl-1H-pyrazolo[3,4-c]pyridin-4-ylethynyl)-phenyl]-3-trifluoromethyl-benzamide]"
≥ 10 µM,< 1 µM,"Cn1ncc2c(C#Cc3cccc(NC(=O)Nc4ccccc4)c3)cncc21 [Example 2.1, 1-[3-(1-Methyl-1H-pyrazolo[3,4-c]pyridin-4-ylethynyl)-phenyl]-3-phenyl-urea]"
≥ 10 µM,< 1 µM,"Cc1ccc(NC(=O)Nc2cccc(C(F)(F)F)c2)cc1C#Cc1cncc2c1cnn2C [Example 2.4, 1-[4-Methyl-3-(1-methyl-1H-pyrazolo[3,4-c]pyridin-4-ylethynyl)-phenyl]-3-(3-trifluoromethyl-phenyl)-urea]"
